Experimental data taken from PubChem BioAssay (NCI).
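Results reflect a 48-hour exposure of cells in 96-well plates to compound at five concentrations. The concentration for 50% growth inhibition is given as GI50. TGI marks complete inhibition of growth.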

How the values were obtained:
Test in all cases: DTP human tumour cell line panel, 48 h
786-0 renal = test system: 786-0 renal
A498 renal = test system: A498 renal
A549 NSCLC = test system: A549 NSCLC
ACHN renal = test system: ACHN renal
BT-549 breast = test system: BT-549 breast
CAKI-1 renal = test system: CAKI-1 renal
COLO 205 colon = test system: COLO 205 colon
DU-145 prostate = test system: DU-145 prostate
EKVX NSCLC = test system: EKVX NSCLC
HCC-2998 colon = test system: HCC-2998 colon
HCT-116 colon = test system: HCT-116 colon
HCT-15 colon = test system: HCT-15 colon
HL-60(TB) leukemia = test system: HL-60(TB) leukemia
HOP-62 NSCLC = test system: HOP-62 NSCLC
HOP-92 NSCLC = test system: HOP-92 NSCLC
HS 578T breast = test system: HS 578T breast
HT29 colon = test system: HT29 colon
IGROV1 ovarian = test system: IGROV1 ovarian
K-562 leukemia = test system: K-562 leukemia
KM12 colon = test system: KM12 colon
LOX IMVI melanoma = test system: LOX IMVI melanoma
M14 melanoma = test system: M14 melanoma
MCF7 breast = test system: MCF7 breast
MDA-MB-231 breast = test system: MDA-MB-231 breast
MDA-MB-435 = test system: MDA-MB-435
MOLT-4 leukemia = test system: MOLT-4 leukemia
NCI-H226 lung = test system: NCI-H226 lung
NCI-H23 lung = test system: NCI-H23 lung

Cc1[nH]c2ccccc2c1CCNCc1ccc(/C=C/C(=O)NO)cc1
GI50 (786-0 renal): 27.5 nM
TGI (786-0 renal): 490 nM
GI50 (A498 renal): < 10 nM
TGI (A498 renal): 22 nM
GI50 (A549 NSCLC): 15.8 nM
TGI (A549 NSCLC): 101 nM
GI50 (ACHN renal): 18.3 nM
TGI (ACHN renal): 71.4 nM
GI50 (BT-549 breast): 213 nM
TGI (BT-549 breast): 12300 nM
GI50 (CAKI-1 renal): 19.3 nM
TGI (CAKI-1 renal): 52.4 nM
GI50 (COLO 205 colon): < 10.8 nM
TGI (COLO 205 colon): 21.8 nM
GI50 (DU-145 prostate): < 10 nM
TGI (DU-145 prostate): 53.2 nM
GI50 (EKVX NSCLC): 23 nM
TGI (EKVX NSCLC): 1500 nM
GI50 (HCC-2998 colon): 12.1 nM
TGI (HCC-2998 colon): 35.3 nM
GI50 (HCT-116 colon): < 10 nM
TGI (HCT-116 colon): 14.2 nM
GI50 (HCT-15 colon): 67.6 nM
TGI (HCT-15 colon): 12900 nM
GI50 (HL-60(TB) leukemia): < 10 nM
TGI (HL-60(TB) leukemia): 3160 nM
GI50 (HOP-62 NSCLC): < 12.2 nM
TGI (HOP-62 NSCLC): 69.7 nM
GI50 (HOP-92 NSCLC): < 10 nM
TGI (HOP-92 NSCLC): < 10 nM
GI50 (HS 578T breast): < 10 nM
TGI (HS 578T breast): 55.4 nM
GI50 (HT29 colon): < 10 nM
TGI (HT29 colon): 10600 nM
GI50 (IGROV1 ovarian): 16.8 nM
TGI (IGROV1 ovarian): 72.1 nM
GI50 (K-562 leukemia): < 10 nM
TGI (K-562 leukemia): 83.3 nM
GI50 (KM12 colon): 19.3 nM
TGI (KM12 colon): 112 nM
GI50 (LOX IMVI melanoma): 12.8 nM
TGI (LOX IMVI melanoma): 30 nM
GI50 (M14 melanoma): < 11.6 nM
TGI (M14 melanoma): 111 nM
GI50 (MCF7 breast): < 10 nM
TGI (MCF7 breast): 795 nM
GI50 (MDA-MB-231 breast): 28.4 nM
TGI (MDA-MB-231 breast): 162 nM
GI50 (MDA-MB-435): < 10 nM
TGI (MDA-MB-435): 50.2 nM
GI50 (MOLT-4 leukemia): < 10 nM
GI50 (NCI-H226 lung): 30.5 nM
TGI (NCI-H226 lung): 172 nM
GI50 (NCI-H23 lung): 24.6 nM
